From patent US9745320B2, “Five-and-six-membered heterocyclic compound, and preparation method, pharmaceutical composition and use thereof” (SHANGHAI CHEMEXPLORER CO., LTD., priority 2013, dated 2017)

Tests used:
Format in all cases: biochemical
JAK1 = JAK1 (Homo sapiens, UniProt P23458); experiment: JAK 1 enzymatic inhibitory activity IC50 assay (Caliper conversion rate); conditions: Km ATP, 28° C., 1 hour
Procedure: (§1) Biological effect: intracytoplasmic JAK 1,2,3 enzymatic inhibitory activity IC50 assay
(§2) JAK1 buffer solution: 25 mM HEPES, pH 7.5, 0.01% Brij-35, 0.01 M Triton. JAK2,3 buffer solution: 50 mM HEPES, pH 7.5, 0.0015% Brij-35.
(§3) 2. Compound was formulated in 100% DMSO in a concentration gradient, deposited to a 384-well plate with a final concentration of 2% of DMSO.
(§4) 3. JAK2,3 enzymes were diluted to having an optimum concentration with the following buffer: 50 mM HEPES, pH 7.5, 0.0015% Brij-35, 2 mM DTT. JAK1 enzyme was diluted to having an optimum concentration with the following buffer: 25 mM HEPES, pH 7.5, 0.01% Brij-35, 2 mM DTT, 0.01M Triton. Then they were transferred to a 384-well plate and incubated with the compound for a certain time.
(§5) 4. JAK2,3 substrate was diluted to having an optimum concentration with the following buffer: 50 mM HEPES, pH 7.5, 0.0015% Brij-35, 10 mM MgCl2, Km adenosine triphosphate. JAK1 substrate was diluted to having an optimum concentration with the following buffer: 25 mM HEPES, pH 7.5, 0.01% Brij-35, 10 mM MgCl2, 0.01 M Triton. Km adenosine triphosphate was added into 384-well plates to initiate reactions, and the reaction were carried out at 28° C. for 1 hour.
(§6) 5. Read the conversion rate by Caliper Reader, and the inhibition rate are calculated according to the average of two tests.

JAK2 = JAK2 (Homo sapiens, UniProt O60674); experiment: JAK 2 enzymatic inhibitory activity IC50 assay (Caliper conversion rate); conditions: Km ATP, 28° C., 1 hour
Procedure: as §1, §2, §3, §4, §5, §6

JAK3 = target: T1, JAK3 (Homo sapiens, UniProt P52333); experiment: JAK 3 enzymatic inhibitory activity IC50 assay (Caliper conversion rate); conditions: Km ATP, 28° C., 1 hour; read-out: JAK 3 enzymatic inhibitory activity IC50
T1 sequence (P52333 1-1124): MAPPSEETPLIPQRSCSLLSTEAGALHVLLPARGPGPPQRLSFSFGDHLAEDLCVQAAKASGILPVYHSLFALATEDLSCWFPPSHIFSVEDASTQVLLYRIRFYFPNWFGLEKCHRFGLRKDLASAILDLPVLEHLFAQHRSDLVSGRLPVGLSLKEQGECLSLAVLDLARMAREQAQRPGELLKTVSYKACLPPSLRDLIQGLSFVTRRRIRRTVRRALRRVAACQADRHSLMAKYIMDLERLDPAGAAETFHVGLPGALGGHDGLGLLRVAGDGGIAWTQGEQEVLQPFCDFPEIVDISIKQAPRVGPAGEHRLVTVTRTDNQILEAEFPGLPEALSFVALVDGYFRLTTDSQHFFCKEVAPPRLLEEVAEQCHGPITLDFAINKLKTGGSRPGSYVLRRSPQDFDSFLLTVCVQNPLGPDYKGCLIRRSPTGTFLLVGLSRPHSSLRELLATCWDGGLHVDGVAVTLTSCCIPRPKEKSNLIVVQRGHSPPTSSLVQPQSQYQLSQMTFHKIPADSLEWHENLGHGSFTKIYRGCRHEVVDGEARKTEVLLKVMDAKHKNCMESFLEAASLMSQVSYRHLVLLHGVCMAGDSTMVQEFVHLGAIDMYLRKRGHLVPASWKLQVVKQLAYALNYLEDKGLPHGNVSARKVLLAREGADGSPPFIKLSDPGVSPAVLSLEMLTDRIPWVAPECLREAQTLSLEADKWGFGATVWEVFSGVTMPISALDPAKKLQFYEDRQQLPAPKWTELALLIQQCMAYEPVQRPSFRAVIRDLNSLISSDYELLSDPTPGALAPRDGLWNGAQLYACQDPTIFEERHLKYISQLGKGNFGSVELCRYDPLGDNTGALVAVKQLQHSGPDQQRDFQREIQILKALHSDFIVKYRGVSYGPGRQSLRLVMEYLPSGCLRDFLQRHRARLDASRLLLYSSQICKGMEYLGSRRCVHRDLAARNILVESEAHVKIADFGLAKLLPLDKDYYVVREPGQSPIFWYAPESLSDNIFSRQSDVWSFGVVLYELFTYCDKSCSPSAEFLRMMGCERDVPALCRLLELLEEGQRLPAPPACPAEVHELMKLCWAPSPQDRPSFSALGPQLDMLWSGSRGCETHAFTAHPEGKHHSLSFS
Procedure: as §1, §2, §3
as §4, with “time. […]” for “time.”
as §6

Sequence of JAK1 (P23458 whole entry, species assumed): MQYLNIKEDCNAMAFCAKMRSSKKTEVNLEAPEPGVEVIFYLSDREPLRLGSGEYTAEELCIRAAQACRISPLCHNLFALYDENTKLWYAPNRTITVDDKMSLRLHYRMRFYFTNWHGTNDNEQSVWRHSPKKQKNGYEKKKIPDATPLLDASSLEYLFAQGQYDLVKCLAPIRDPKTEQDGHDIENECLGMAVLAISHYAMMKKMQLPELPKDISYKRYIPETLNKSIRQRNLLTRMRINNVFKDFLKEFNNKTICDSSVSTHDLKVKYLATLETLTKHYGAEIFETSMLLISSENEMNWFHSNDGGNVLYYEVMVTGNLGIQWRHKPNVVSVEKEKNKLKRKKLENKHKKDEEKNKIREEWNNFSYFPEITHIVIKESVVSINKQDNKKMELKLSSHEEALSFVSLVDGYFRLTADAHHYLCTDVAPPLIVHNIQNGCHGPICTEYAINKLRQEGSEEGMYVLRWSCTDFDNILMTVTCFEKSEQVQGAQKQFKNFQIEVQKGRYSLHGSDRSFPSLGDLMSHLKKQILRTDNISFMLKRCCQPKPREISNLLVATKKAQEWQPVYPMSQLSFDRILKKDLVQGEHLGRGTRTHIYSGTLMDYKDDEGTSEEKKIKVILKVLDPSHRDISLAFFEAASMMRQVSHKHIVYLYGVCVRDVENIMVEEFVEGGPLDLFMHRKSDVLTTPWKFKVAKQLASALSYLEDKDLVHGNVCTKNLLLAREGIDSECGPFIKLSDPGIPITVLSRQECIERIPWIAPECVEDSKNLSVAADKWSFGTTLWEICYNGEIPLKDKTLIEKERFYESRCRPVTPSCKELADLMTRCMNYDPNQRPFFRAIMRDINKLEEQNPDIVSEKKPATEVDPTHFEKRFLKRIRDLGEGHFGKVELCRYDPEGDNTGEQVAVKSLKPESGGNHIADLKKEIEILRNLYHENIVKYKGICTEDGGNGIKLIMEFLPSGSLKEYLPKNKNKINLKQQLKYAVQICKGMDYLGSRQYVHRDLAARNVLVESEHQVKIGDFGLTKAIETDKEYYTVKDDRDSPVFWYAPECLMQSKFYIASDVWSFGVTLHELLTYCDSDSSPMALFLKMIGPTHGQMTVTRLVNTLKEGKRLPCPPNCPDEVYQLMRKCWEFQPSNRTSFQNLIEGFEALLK
Sequence of JAK2 (O60674 whole entry, species assumed): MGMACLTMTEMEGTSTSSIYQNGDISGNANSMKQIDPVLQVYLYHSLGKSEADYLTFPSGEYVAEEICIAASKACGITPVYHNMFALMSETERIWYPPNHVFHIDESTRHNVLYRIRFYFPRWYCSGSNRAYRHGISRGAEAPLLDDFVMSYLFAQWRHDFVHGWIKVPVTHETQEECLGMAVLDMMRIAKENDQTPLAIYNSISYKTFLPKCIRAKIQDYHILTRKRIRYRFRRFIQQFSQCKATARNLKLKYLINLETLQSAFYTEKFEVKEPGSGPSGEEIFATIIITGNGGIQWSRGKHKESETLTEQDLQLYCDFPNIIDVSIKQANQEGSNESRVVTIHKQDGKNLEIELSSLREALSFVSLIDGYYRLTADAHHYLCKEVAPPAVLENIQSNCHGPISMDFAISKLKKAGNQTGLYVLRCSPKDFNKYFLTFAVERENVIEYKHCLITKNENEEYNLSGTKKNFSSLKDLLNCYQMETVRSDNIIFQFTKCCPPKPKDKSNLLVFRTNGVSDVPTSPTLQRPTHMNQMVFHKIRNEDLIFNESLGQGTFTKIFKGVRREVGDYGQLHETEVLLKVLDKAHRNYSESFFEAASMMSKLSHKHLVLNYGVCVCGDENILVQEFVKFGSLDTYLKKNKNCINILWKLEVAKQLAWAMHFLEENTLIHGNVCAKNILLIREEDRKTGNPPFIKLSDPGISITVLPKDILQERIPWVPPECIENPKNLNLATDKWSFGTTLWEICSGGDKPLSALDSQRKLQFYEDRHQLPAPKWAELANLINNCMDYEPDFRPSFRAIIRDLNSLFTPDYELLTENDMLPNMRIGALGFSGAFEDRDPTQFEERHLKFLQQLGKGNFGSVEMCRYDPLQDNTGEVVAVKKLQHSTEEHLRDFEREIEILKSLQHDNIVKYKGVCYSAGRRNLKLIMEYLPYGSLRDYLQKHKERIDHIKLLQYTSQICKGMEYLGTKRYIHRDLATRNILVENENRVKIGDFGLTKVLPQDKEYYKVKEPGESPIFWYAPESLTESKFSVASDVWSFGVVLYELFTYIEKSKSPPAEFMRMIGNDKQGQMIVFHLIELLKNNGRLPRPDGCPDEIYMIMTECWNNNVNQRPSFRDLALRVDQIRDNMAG

Row | Structure (SMILES) | IC50 (JAK1) | IC50 (JAK2) | IC50 (JAK3)
1 | CCS(=O)(=O)N1CC(CC#N)(n2cc(-c3nc(Nc4ccc(OCCN5CCCC5)cc4)nc4ccsc34)cn2)C1 [Compound T-09, 2-(1-(Ethylsulfonyl)-3-(4-(2-((4-(2-(pyrrolidin-1-yl)ethoxy)phenyl)amino)thieno[3,2-d]pyrimidin-4-yl)-1H-pyrazol-1-yl)azetidin-3-yl)acetonitrile] | 50 to 500 nM | < 50 nM | 50 to 500 nM
2 | CCS(=O)(=O)N1CC(CC#N)(n2cc(-c3nc(Nc4cnn(C5CNC5)c4)nc4ccsc34)cn2)C1 [Compound T-65, 2-(3-(4-(2-((1-(Azetidin-3-yl)-1H-pyrazol-4-yl)amino)thieno[3,2-d]pyrimidin-4-yl)-1H-pyrazol-1-yl)-1-(ethylsulfonyl)azetidin-3-yl)acetonitrile] | < 50 nM | < 50 nM | 50 to 500 nM
3 | CCS(=O)(=O)N1CC(CC#N)(n2cc(-c3nc(Nc4cnn(C(=O)COC)c4)nc4ccsc34)cn2)C1 [Compound T-32, 2-(1-(Ethylsulfonyl)-3-(4-(2-((1-(2-methoxyacetyl)-1H-pyrazol-4-yl)amino)thieno[3,2-d]pyrimidin-4-yl)-1H-pyrazol-1-yl)azetidin-3-yl)acetonitrile] | < 50 nM | < 50 nM | < 50 nM
4 | CCS(=O)(=O)N1CC(CC#N)(n2cc(-c3nc(Nc4ccccc4)nc4ccsc34)cn2)C1 [Compound T-05, 2-(1-(Ethylsulfonyl)-3-(4-(2-(phenylamino)thieno[3,2-d]pyrimidin-4-yl)-1H-pyrazol-1-yl)azetidin-3-yl)acetonitrile] | 50 to 500 nM | < 50 nM | 50 to 500 nM
5 | CCS(=O)(=O)N1CC(CC#N)(n2cc(-c3nc(Nc4ccn(C)n4)nc4ccsc34)cn2)C1 [Compound T-25, 2-(1-(Ethylsulfonyl)-3-(4-(2-((1-methyl-1H-pyrazol-3-yl)amino)thieno[3,2-d]pyrimidin-4-yl)-1H-pyrazol-1-yl)azetidin-3-yl)acetonitrile] | < 50 nM | < 50 nM | 50 to 500 nM
6 | CCS(=O)(=O)N1CC(CC#N)(n2cc(-c3nc(Nc4ccc(-c5nn[nH]n5)cc4)nc4ccsc34)cn2)C1 [Compound T-45, 2-(3-(4-(2-((4-(2H-Tetrazol-5-yl)phenyl)amino)thieno[3,2-d]pyrimidin-4-yl)-1H-pyrazol-1-yl)-1-(ethylsulfonyl)azetidin-3-yl)acetonitrile] | < 50 nM | < 50 nM | 50 to 500 nM
7 | CCS(=O)(=O)N1CC(CC#N)(n2cc(-c3nc(Nc4cncnc4)nc4ccsc34)cn2)C1 [Compound T-14, 2-(1-(Ethylsulfonyl)-3-(4-(2-(pyrimidin-5-ylamino)thieno[3,2-d]pyrimidin-4-yl)-1H-pyrazol-1-yl)azetidin-3-yl)acetonitrile] | 500 to 1000 nM | < 50 nM | > 1000 nM
8 | N#CCC1(n2cc(-c3nc(Nc4cnn(CCN5CCOCC5)c4)nc4ccsc34)cn2)CCOCC1 [Compound T-50, 2-(4-(4-(2-((1-(2-Morpholinoethyl)-1H-pyrazol-4-yl)amino)thieno[3,2-d]pyrimidin-4-yl)-1H-pyrazol-1-yl)tetrahydro-2H-pyran-4-yl)acetonitrile] | 500 to 1000 nM | < 50 nM | 500 to 1000 nM
9 | CCS(=O)(=O)N1CC(CC#N)(n2cc(-c3nc(Nc4ccc5[nH]cnc5c4)nc4ccsc34)cn2)C1 [Compound T-58, 2-(3-(4-(2-((1H-Benzo[d]imidazol-5-yl)amino)thieno[3,2-d]pyrimidin-4-yl)-1H-pyrazol-1-yl)-1-(ethylsulfonyl)azetidin-3-yl)acetonitrile] | < 50 nM | < 50 nM | 50 to 500 nM
10 | CCS(=O)(=O)N1CC(CC#N)(n2cc(-c3nc(Nc4cccc(N5CCOCC5)c4)nc4ccsc34)cn2)C1 [Compound T-13, 2-(1-(Ethylsulfonyl)-3-(4-(2-((3-morpholinophenyl)amino)thieno[3,2-d]pyrimidin-4-yl)-1H-pyrazol-1-yl)azetidin-3-yl)acetonitrile] | 500 to 1000 nM | 50 to 500 nM | 500 to 1000 nM

Further lines, results first:

Row | IC50 (JAK1) | IC50 (JAK2) | IC50 (JAK3) | Structure (SMILES)
11 | 500 to 1000 nM | < 50 nM | 500 to 1000 nM | Cn1cc(Nc2nc(-c3cnn(C4(CC#N)CN(C(=O)CO)C4)c3)c3sccc3n2)cn1 [Compound T-49, 2-(1-(2-Hydroxyacetyl)-3-(4-(2-((1-methyl-1H-pyrazol-4-yl)amino)thieno[3,2-d]pyrimidin-4-yl)-1H-pyrazol-1-yl)azetidin-3-yl)acetonitrile]
12 | 50 to 500 nM | < 50 nM | 50 to 500 nM | CCCCOC(=O)CCn1cc(Nc2nc(-c3cnn(C4(CC#N)CN(S(=O)(=O)CC)C4)c3)c3sccc3n2)cn1 [Compound T-34, Butyl 3-(4-((4-(1-(3-(cyanomethyl)-1-(ethylsulfonyl)azetidin-3-yl)-1H-pyrazol-4-yl)thieno[3,2-d]pyrimidin-2-yl)amino)-1H-pyrazol-1-yl)propanoate]
13 | < 50 nM | < 50 nM | < 50 nM | C[C@H](O)Cn1cc(Nc2nc(-c3cnn(C4(CC#N)CN(S(C)(=O)=O)C4)c3)c3sccc3n2)cn1 [Compound T-87, (S)-2-(3-(4-(2-((1-(2-Hydroxypropyl)-1H-pyrazol-4-yl)amino)thieno[3,2-d]pyrimidin-4-yl)-1H-pyrazol-1-yl)-1-(methylsulfonyl)azetidin-3-yl)acetonitrile]
14 | < 50 nM | < 50 nM | < 50 nM | CC(C)(CO)n1cc(Nc2nc(-c3cnn(C4(CC#N)CN(S(C)(=O)=O)C4)c3)c3sccc3n2)cn1 [Compound T-79, 2-(3-(4-(2-((1-(1-Hydroxy-2-methylpropan-2-yl)-1H-pyrazol-4-yl)amino)thieno[3,2-d]pyrimidin-4-yl)-1H-pyrazol-1-yl)-1-(methylsulfonyl)azetidin-3-yl)acetonitrile]
15 | 50 to 500 nM | < 50 nM | < 50 nM | CCS(=O)(=O)N1CC(CC#N)(n2cc(-c3nc(Nc4cnn(CCCN5CCN(C)CC5)c4)nc4ccsc34)cn2)C1 [Compound T-67, 2-(1-(Ethylsulfonyl)-3-(4-(2-((1-(3-(4-methylpiperazin-1-yl)propyl)-1H-pyrazol-4-yl)amino)thieno[3,2-d]pyrimidin-4-yl)-1H-pyrazol-1-yl)azetidin-3-yl)acetonitrile]
16 | 50 to 500 nM | < 50 nM | < 50 nM | CCS(=O)(=O)N1CC(CC#N)(n2cc(-c3nc(Nc4cnn(C5COC5)c4)nc4ccsc34)cn2)C1 [Compound T-39, 2-(1-(Ethylsulfonyl)-3-(4-(2-((1-(oxetan-3-yl)-1H-pyrazol-4-yl)amino)thieno[3,2-d]pyrimidin-4-yl)-1H-pyrazol-1-yl)azetidin-3-yl)acetonitrile]
17 | < 50 nM | < 50 nM | 50 to 500 nM | CCS(=O)(=O)N1CC(CC#N)(n2cc(-c3nc(Nc4cnn(CCC(=O)O)c4)nc4ccsc34)cn2)C1 [Compound T-35, 3-(4-((4-(1-(3-(Cyanomethyl)-1-(ethylsulfonyl)azetidin-3-yl)-1H-pyrazol-4-yl)thieno[3,2-d]pyrimidin-2-yl)amino)-1H-pyrazol-1-yl)propanoic acid]
